Test: xn = mol fraction of the nth substance listed
Conditions: 100 kPa, Liquid; for speed of sound: Frequency=3 MHz, Sing-around technique in a fixed-path interferometer; for viscosity: Falling or rolling sphere viscometry; for mass density: Vibrating tube method

CCOS(=O)(=O)[O-].CCn1cc[n+](C)c1 [1-ethyl-3-methylimidazolium ethyl sulfate] + CO
Conditions | mass density [kg/m3] | speed of sound [m/s] | viscosity [mPa·s]
293.15 K, x1 = 0.1067 | – | 1292.5 | –
293.15 K, x1 = 0.1996 | – | 1399.1 | –
293.15 K, x1 = 0.2919 | – | 1473.1 | –
293.15 K, x1 = 0.4021 | – | 1533.8 | –
293.15 K, x1 = 0.4918 | – | 1569.6 | –
293.15 K, x1 = 0.609 | – | 1606.4 | –
293.15 K, x1 = 0.7095 | – | 1632.8 | –
293.15 K, x1 = 0.8014 | – | 1652.9 | –
293.15 K, x1 = 0.904 | – | 1667.9 | –
293.15 K, x1 = 1 | – | 1682.3 | –
298.15 K, x1 = 0.1067 | 961.555 | – | 1.45
298.15 K, x1 = 0.1996 | 1042.5 | – | 3.84
298.15 K, x1 = 0.2919 | 1095.83 | – | 4.57
298.15 K, x1 = 0.4021 | 1138.91 | – | 7.83
298.15 K, x1 = 0.4918 | 1164.2 | – | 12.99
298.15 K, x1 = 0.609 | 1188.99 | – | 19.97
298.15 K, x1 = 0.7095 | 1204.69 | – | 31.61
298.15 K, x1 = 0.8014 | 1216.59 | – | 45.92
298.15 K, x1 = 0.904 | 1227.45 | – | 65.82
298.15 K, x1 = 1 | 1236.33 | – | 96.21
303.15 K, x1 = 0.1067 | 957.326 | 1278.1 | 1.35
303.15 K, x1 = 0.1996 | 1038.4 | 1386.3 | 3.29
303.15 K, x1 = 0.2919 | 1092.01 | 1459.8 | 4.15
303.15 K, x1 = 0.4021 | 1135.31 | 1522.6 | 7.09
303.15 K, x1 = 0.4918 | 1160.82 | 1556.9 | 11.38
303.15 K, x1 = 0.609 | 1185.52 | 1592.1 | 17.26
303.15 K, x1 = 0.7095 | 1201.31 | 1620.4 | 26.48
303.15 K, x1 = 0.8014 | 1213.11 | 1639.1 | 37.65
303.15 K, x1 = 0.904 | 1224.02 | 1655.7 | 53.03
303.15 K, x1 = 1 | 1232.93 | 1670 | 75.89
308.15 K, x1 = 0.1067 | 952.925 | 1263.8 | 1.26
308.15 K, x1 = 0.1996 | 1034.33 | 1372.7 | 2.8
308.15 K, x1 = 0.2919 | 1088.21 | 1446.5 | 3.78
308.15 K, x1 = 0.4021 | 1131.6 | 1509.8 | 6.42
308.15 K, x1 = 0.4918 | 1157.42 | 1544.4 | 10.02
308.15 K, x1 = 0.609 | 1182.08 | 1579.7 | 15.14
308.15 K, x1 = 0.7095 | 1198 | 1608.1 | 22.48
308.15 K, x1 = 0.8014 | 1209.7 | 1627 | 31.44
308.15 K, x1 = 0.904 | 1220.61 | 1643.6 | 43.71
308.15 K, x1 = 1 | 1229.57 | 1657.9 | 60.73
313.15 K, x1 = 0.1067 | 948.697 | 1249.6 | 1.17
313.15 K, x1 = 0.1996 | 1030.41 | 1359.3 | 2.47
313.15 K, x1 = 0.2919 | 1084.41 | 1433.5 | 3.48
313.15 K, x1 = 0.4021 | 1127.88 | 1497.1 | 5.85
313.15 K, x1 = 0.4918 | 1153.83 | 1531.8 | 8.91
313.15 K, x1 = 0.609 | 1178.56 | 1567.3 | 13.32
313.15 K, x1 = 0.7095 | 1194.76 | 1596 | 19.31
313.15 K, x1 = 0.8014 | 1206.29 | 1615 | 26.51
313.15 K, x1 = 0.904 | 1217.22 | 1631.6 | 36.28
313.15 K, x1 = 1 | 1226.21 | 1645.9 | 49.38
318.15 K, x1 = 0.1067 | 944.458 | 1235.4 | 1.09
318.15 K, x1 = 0.1996 | 1026.64 | 1345.8 | 2.23
318.15 K, x1 = 0.2919 | 1080.74 | 1420.5 | 3.21
318.15 K, x1 = 0.4021 | 1124.28 | 1484.5 | 5.34
318.15 K, x1 = 0.4918 | 1150.3 | 1519.3 | 7.96
318.15 K, x1 = 0.609 | 1175.06 | 1555 | 11.78
318.15 K, x1 = 0.7095 | 1191.48 | 1584 | 16.79
318.15 K, x1 = 0.8014 | 1202.9 | 1603.1 | 22.62
318.15 K, x1 = 0.904 | 1213.85 | 1619.7 | 30.46
318.15 K, x1 = 1 | 1222.87 | 1634.1 | 40.93
323.15 K, x1 = 0.1067 | 940.54 | 1221.4 | 1.02
323.15 K, x1 = 0.1996 | 1022.72 | 1332.3 | 1.95
323.15 K, x1 = 0.2919 | 1077.09 | 1407.6 | 2.96
323.15 K, x1 = 0.4021 | 1120.78 | 1471.9 | 4.85
323.15 K, x1 = 0.4918 | 1146.92 | 1506.8 | 7.08
323.15 K, x1 = 0.609 | 1171.65 | 1542.8 | 10.54
323.15 K, x1 = 0.7095 | 1188.29 | 1572.1 | 14.68
323.15 K, x1 = 0.8014 | 1199.51 | 1591.3 | 19.5
323.15 K, x1 = 0.904 | 1210.5 | 1607.9 | 25.98
323.15 K, x1 = 1 | 1219.54 | 1622.3 | 33.82

— the NIST ThermoML archive (doi:10.1016/j.fluid.2017.01.019)
